Results published in PMC9959349, “Discovery of the 3-Amino-1,2,4-triazine-Based Library as Selective PDK1 Inhibitors with Therapeutic Potential in Highly Aggressive Pancreatic Ductal Adenocarcinoma” (International Journal of Molecular Sciences, 2023).
Counter-ions that a name gives are not always drawn.

Columns and labels:
BxPC-3 cells [1] = test: 2D cytotoxicity, MTT assay, BxPC-3; format: cell-based; conditions: Homo sapiens, BXPC-3, 72 h, read-out: IC50 ±S.D. BxPC-3 (2D cytotoxicity)
Experimental: (§1) All newly synthesized compounds were then screened for their cytotoxic activity against two human PDAC cell lines, namely a KRAS-wild-type PDAC cell line (BxPC-3 cells) and a KRAS-mutant PDAC cell line (PSN-1 cells). […] The cytotoxicity parameters, expressed in terms of IC50 and obtained after 72 h of drug exposure by MTT assay, are listed in the Supplementary Materials (Table S2).
(§2) The growth inhibitory effect on tumor cells was evaluated by means of the MTT assay. Briefly, 3–8 × 10^3 cells/well, dependent upon the growth characteristics of the cell line, were seeded in 96-well microplates in growth medium (100 μL). After 24 h, the medium was removed and replaced with a fresh one containing the compound to be studied at the appropriate concentration. Triplicate cultures were established for each treatment. After 72 h, each well was treated with 10 μL of a 5 mg/mL MTT saline solution, and following 5 h of incubation, 100 μL of a sodium dodecyl sulfate (SDS) solution in HCl 0.01 M was added. After overnight incubation, cell growth inhibition was detected by measuring the absorbance of each well at 570 nm using a Bio-Rad 680 microplate reader. The mean absorbance for each drug dose was expressed as a percentage of the control untreated well absorbance and plotted vs. drug concentration. IC50 values, the drug concentrations that reduce the mean absorbance at 570 nm to 50% of those in the untreated control wells, were calculated by the four-parameter logistic (4-PL) model. The evaluation was based on means from at least four independent experiments.

PSN-1 cells [2] = test: 2D cytotoxicity, MTT assay, PSN-1; format: cell-based; conditions: Homo sapiens, PSN1, 72 h, read-out: IC50 ±S.D. PSN-1 (2D cytotoxicity)
Experimental: as §1, §2

BxPC-3 cells [3] = test: 3D spheroid cytotoxicity, acid phosphatase (APH) assay, BxPC-3; conditions: read-out: IC50 ±S.D. BxPC-3 (3D cytotoxicity); spheroids, 72 h, APH test
Experimental: (§3) The PDAC cancer spheroids were treated with tested compounds for 72 h, and cell viability was assessed by means of the acid phosphatase (APH) assay (Table 3).
(§4) An APH-modified assay was used for determining cell viability in 3D spheroids, as previously described [61]. Briefly, the pre-seeded spheroids were treated with fresh medium containing the compound to be studied at the appropriate concentration (range 2.5–200 μM). Triplicate cultures were established for each treatment. After 72 h, each well was treated with 100 μL of the assay buffer (0.1 M sodium acetate, 0.1% Triton-X-100, supplemented with ImmunoPure p-nitrophenyl phosphate; Sigma Chemical Co., Ltd.) and, following 3 h of incubation, 10 μL of 1 M NaOH solution was added. […] The mean absorbance for each drug dose was expressed as a percentage of the control untreated well absorbance (T/C) and plotted vs. drug concentration. […] The evaluation was based on means from at least four independent experiments.

PSN-1 cells [4] = test: 3D spheroid cytotoxicity, acid phosphatase (APH) assay, PSN-1; conditions: read-out: IC50 ±S.D. PSN-1 (3D cytotoxicity); spheroids, 72 h, APH test
Experimental: as §3, §4

recombinant human PDK1 = recombinant human PDK1 (Homo sapiens, UniProt Q15118); test: ADP-Glo kinase assay, PDK1
Experimental: (§5) The ability of tested compounds to inhibit the activity of PDK 1–4 isoforms was primarily assessed in cell-free experiments by a chemioluminescent assay, the ADPGlo™ Kinase Assay kit from Promega (Promega Corporation, Madison, WI, USA).
(§6) The in vitro inhibitory activity of tested compounds on recombinant human PDK1-4 isoforms (Abcam, Cambridge, MA, USA) was evaluated by using the ADPGlo™ Kinase Assay kit from Promega (Promega Corporation, Madison, WI, USA) following the instructions of the manufacturer. […] The reaction was then started by the addition of substrate/ATP for 60 min at room temperature. Subsequently, ADP-Glo™ reagent was added and incubated for 40 min prior to kinase detection reagent addition. After 30 min, the luminescence was measured with a Tecan plate reader (Tecan Infinite® M200). Raw data were normalized to the values of control wells and luminescence values for each drug dose were expressed as a percentage of the luminescence of control untreated wells. […] The evaluation was based on means from at least three independent experiments.

recombinant human HSP90 = recombinant human HSP90 (Homo sapiens, UniProt P07900); test: HSP90 inhibition assay (Transcreener ADP kit); format: biochemical
Experimental: The in vitro inhibitory activity of tested compounds on recombinant human HSP90 was assessed by The Transcreener™ ADP kit (Bellbrook Labs) according to the manufacturer’s protocol. Human recombinant HSP90 protein was incubated with tested compounds in the presence of 250 μM ATP at 37 °C for 30 min, 4°C for 30 min and ATPase activity was stopped via the addition of the stop and detect buffer. Following this, samples were incubated for 1 h at room temperature with the ADP2 Antibody and the ADP Alexa594 Tracer. The fluorescence intensity polarization of samples was measured with a Tecan plate reader (Tecan Infinite® M200). The evaluation was based on means from at least three independent experiments.

PSN-1 cells [5] = test: ROS production (CM-H2DCFDA); format: cell-based, human; conditions: 5 µM test compounds, antimycin 3 µM as positive control
Experimental: Consistently, tested compounds, although to different extents, were effective in reducing total cellular sulfhydryl contents in PSN-1-treated cells (Figure 9B).
The production of ROS was measured in PSN-1 cells (10^4 per well) grown for 24 h in a 96-well plate in RPMI medium without phenol red (Sigma Aldrich, Germany). Cells were then washed with PBS and loaded with 10 μM 5-(and-6)-chloromethyl-2′,7′-dichlorodihydrofluorescein diacetate acetylester (CM–H2DCFDA) (Molecular Probes-Invitrogen, Eugene, OR, USA) for 45 min, in the dark. Afterward, cells were washed with PBS and incubated with tested compounds. Fluorescence increase was estimated utilizing the wavelengths of 485 nm (excitation) and 527 nm (emission) in a VICTOR X3 (PerkinElmer, USA) plate reader. Antimycin (3 μM, Sigma Aldrich), a potent inhibitor of Complex III in the electron transport chain, was used as the positive control.

recombinant human PDK4 = recombinant human PDK4 (Homo sapiens, UniProt Q16654); test: ADP-Glo kinase assay, PDK4; conditions: 1.5 µM compound
Experimental: as §5, §6

PSN-1 cells [6] = test: Mitochondrial membrane potential (Mito-ID kit); format: cell-based, human; conditions: IC50 concentrations
Experimental: The ΔΨ was assayed using the Mito-ID® Membrane Potential Kit according to the manufacturer’s instructions (Enzo Life Sciences, Farmingdale, NY, USA) as previously described. Briefly, PSN-1 cells (8 × 10^3 per well) were seeded in 96-well plates; after 24 h, cells were washed with PBS and loaded with Mito-ID Detection Reagent for 30 min at 37 °C in the dark. Afterward, cells were incubated with tested compounds for 60 min. CCCP (Carbonyl cyanide 3-chlorophenyl-hydrazone) was used as the positive control. Fluorescence intensity was estimated using a VICTOR X3 (PerkinElmer, Waltham, MA, USA) plate reader at 490 (excitation) and 590 nm (emission).

[7] = Body weight changes of LLC-bearing mice; format: in vivo; conditions: LLC-bearing C57BL mice, daily dosing; gemcitabine 60 mg kg−1, cisplatin 3 mg kg−1
[8] = system: murine Lewis Lung Carcinoma (LLC); test: In vivo anticancer activity, LLC solid tumor model; conditions: LLC-bearing C57BL mice, daily dosing days 7-14, evaluated day 15; 5i 20 mg kg−1 i.p., gemcitabine 60 mg kg−1, cisplatin 3 mg kg−1
Description: Seven days after tumor inoculation the tumor-bearing mice were randomized into vehicle control and treatment groups.
The LLC was implanted intramuscularly (i.m.) as a 2 × 10^6 cell inoculum into the right hind leg of 8-week-old male and female C57BL mice (24 ± 3 g body weight). After 7 days from tumor implantation (visible tumors), mice were randomly divided into 4 groups (8 animals per group) and subjected to daily i.p. administration. […] At day 15, animals were sacrificed, the legs were amputated at the proximal end of the femur, and the inhibition of tumor growth was determined from the difference in the weights of the tumor-bearing leg and the healthy leg of the animals, expressed as a percentage referenced to the control animals. Body weight was measured at day 0 and from day 7 onwards every 2 days and was taken as a parameter for systemic toxicity. All presented values are the means ± SD of no less than three measurements.

[9] = 72 h, MTT test, KRAS-wild-type BxPC-3
[10] = 72 h, MTT test, KRAS-mutant PSN-1

recombinant human PDK1, sequence (Q15118 29-436): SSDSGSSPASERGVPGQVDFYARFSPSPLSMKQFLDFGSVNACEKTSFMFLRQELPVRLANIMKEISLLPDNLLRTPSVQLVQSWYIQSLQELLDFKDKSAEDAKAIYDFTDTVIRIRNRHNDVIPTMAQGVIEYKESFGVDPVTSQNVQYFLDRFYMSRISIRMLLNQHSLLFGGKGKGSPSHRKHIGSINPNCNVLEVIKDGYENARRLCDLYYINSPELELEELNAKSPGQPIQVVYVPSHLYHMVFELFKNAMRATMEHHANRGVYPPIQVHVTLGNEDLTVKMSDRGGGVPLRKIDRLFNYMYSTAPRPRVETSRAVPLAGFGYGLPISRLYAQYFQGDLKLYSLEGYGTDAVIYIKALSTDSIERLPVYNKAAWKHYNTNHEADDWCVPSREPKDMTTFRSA
recombinant human PDK4, sequence (Q16654 whole entry): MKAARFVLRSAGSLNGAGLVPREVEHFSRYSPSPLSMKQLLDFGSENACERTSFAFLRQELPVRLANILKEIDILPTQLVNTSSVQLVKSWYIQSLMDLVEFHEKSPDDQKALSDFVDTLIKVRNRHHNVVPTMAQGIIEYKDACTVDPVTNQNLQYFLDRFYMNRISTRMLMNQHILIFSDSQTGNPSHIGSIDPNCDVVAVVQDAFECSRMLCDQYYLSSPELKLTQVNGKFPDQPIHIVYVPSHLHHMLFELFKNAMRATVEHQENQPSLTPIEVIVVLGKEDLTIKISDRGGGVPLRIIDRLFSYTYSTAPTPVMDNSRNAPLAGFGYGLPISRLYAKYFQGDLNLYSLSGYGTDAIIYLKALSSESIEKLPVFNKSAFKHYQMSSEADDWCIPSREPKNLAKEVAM

SMILES | melting point [°C] | IC50 (BxPC-3 cells [1]; [9]) [µM] | IC50 (PSN-1 cells [2]; [10]) [µM] | also measured
Nc1nnc(-c2c[nH]c3ccccc23)c(-c2c[nH]c3ccccc23)n1 [5a] | 288.2 | – | – | –
COc1ccc2[nH]cc(-c3nnc(N)nc3-c3cn(C)c4ccc(Br)cc34)c2c1 [5aa] | 267.8 | – | – | –
Nc1nnc(-c2c[nH]c3ccc(F)cc23)c(-c2c[nH]c3ccc(F)cc23)n1 [5c] | 178.1 | – | – | –
Nc1nnc(-c2c[nH]c3ccc(Br)cc23)c(-c2c[nH]c3ccc(Br)cc23)n1 [5d] | 208.2 | 0.4 ± 0.1 | 0.3 ± 0.04 | –
Cn1cc(-c2nnc(N)nc2-c2cn(C)c3ccccc23)c2ccccc21 [5e] | 274.4 | – | – | –
COc1ccc2c(c1)c(-c1nnc(N)nc1-c1cn(C)c3ccc(OC)cc13)cn2C [5f] | 199.5 | – | – | –
Cn1cc(-c2nnc(N)nc2-c2cn(C)c3ccc(F)cc23)c2cc(F)ccc21 [5g] | 236.5 | – | – | IC50 (BxPC-3 cells [3]): 19.5 ± 2.1 µM; IC50 (PSN-1 cells [4]): 5.8 ± 0.8 µM
Cn1cc(-c2nnc(N)nc2-c2cn(C)c3ccc(Br)cc23)c2ccccc21 [5j] | 257.3 | 0.1 ± 0.04 | 0.4 ± 0.1 | IC50 (BxPC-3 cells [3]): 16.7 ± 2 µM; IC50 (PSN-1 cells [4]): 10.4 ± 1.6 µM
Cn1cc(-c2nc(N)nnc2-c2c[nH]c3ccccc23)c2ccccc21 [5m] | 246.6 | – | – | –
Cn1cc(-c2nc(N)nnc2-c2c[nH]c3ccccc23)c2cc(F)ccc21 [5n] | 254.3 | – | – | –
Cn1cc(-c2nc(N)nnc2-c2c[nH]c3ccccc23)c2cc(Br)ccc21 [5o] | 271 | 0.2 ± 0.03 | 0.5 ± 0.1 | –
COc1ccc2c(c1)c(-c1nc(N)nnc1-c1c[nH]c3ccccc13)cn2C [5p] | 288.4 | – | – | –
Cn1cc(-c2nc(N)nnc2-c2c[nH]c3ccc(Br)cc23)c2cc(Br)ccc21 [5r] | 239 | – | – | –
Cn1cc(-c2nc(N)nnc2-c2c[nH]c3ccc(Br)cc23)c2cc(F)ccc21 [5t] | 266.9 | 1.4 ± 0.2 | 0.4 ± 0.1 | –
Cn1cc(-c2nc(N)nnc2-c2c[nH]c3ccc(F)cc23)c2ccccc21 [5v] | 285.9 | 0.2 ± 0.03 | 0.2 ± 0.04 | –
Cn1cc(-c2nc(N)nnc2-c2c[nH]c3ccc(F)cc23)c2cc(Br)ccc21 [5x] | 267.6 | 0.2 ± 0.04 | 0.3 ± 0.1 | IC50 (recombinant human PDK1): 0.7 µM; IC50 (recombinant human HSP90): > 1.5 µM
COc1ccc2[nH]cc(-c3nnc(N)nc3-c3cn(C)c4ccc(OC)cc34)c2c1 [5y] | 205.5 | – | – | –
COc1ccc2[nH]cc(-c3nnc(N)nc3-c3cn(C)c4ccccc34)c2c1 [5z] | 249.4 | – | – | –
O=C(c1ccccc1)C(Cl)Cl [DAP, 2,2-dichloroacetophenone, reference compound] | – | – | – | IC50 (BxPC-3 cells [1]): 1.06 ± 0.9 µM; IC50 (BxPC-3 cells [3]): 87.4 ± 8.9 µM; IC50 (recombinant human PDK1): > 100 µM; IC50 (PSN-1 cells [2]): 10.2 ± 1.6 µM; IC50 (PSN-1 cells [4]): 78.2 ± 6.8 µM
O=C(O)C(Cl)Cl [DCA, Dichloroacetic acid, reference compound] | – | – | – | IC50 (BxPC-3 cells [3]): > 1000 µM; IC50 (PSN-1 cells [4]): > 1000 µM
Nc1ccn([C@@H]2O[C@H](CO)[C@@H](O)C2(F)F)c(=O)n1 [Gemcitabine, gemcitabine hydrochloride, reference compound] | – | 0.02 ± 0.003 | 0.1 ± 0.04 | body weight loss [7]: ~ 20%; IC50 (BxPC-3 cells [3]): 103 ± 6.3 µM; reduction in tumor growth compared to the control group [8]: about 80%; IC50 (PSN-1 cells [4]): 160 ± 5.6 µM
N.N.[Cl][Pt][Cl] [cisplatin] | – | – | – | body weight loss [7]: ~ 20%; reduction in tumor growth compared to the control group [8]: ~ 84%

Now from value to compound, other results behind:

melting point [°C] | SMILES | IC50 (BxPC-3 cells [1]; [9]) [µM] | IC50 (PSN-1 cells [2]; [10]) [µM] | also measured
241.8 | COc1ccc2[nH]cc(-c3nc(N)nnc3-c3cn(C)c4ccc(Br)cc34)c2c1 [6aa] | – | – | –
251.2 | COc1ccc2c(c1)c(-c1nnc(N)nc1-c1cn(C)c3ccc(F)cc13)cn2C [6k] | – | – | IC50 (BxPC-3 cells [3]): 22.3 ± 2.6 µM; IC50 (PSN-1 cells [4]): 9.4 ± 0.2 µM
311.3 | Cn1cc(-c2nnc(N)nc2-c2c[nH]c3ccccc23)c2ccccc21 [6m] | – | – | –
291 | Cn1cc(-c2nnc(N)nc2-c2c[nH]c3ccccc23)c2cc(Br)ccc21 [6o] | 0.3 ± 0.03 | 0.4 ± 0.04 | –
279.6 | COc1ccc2c(c1)c(-c1nnc(N)nc1-c1c[nH]c3ccccc13)cn2C [6p] | – | – | –
282.4 | Cn1cc(-c2nnc(N)nc2-c2c[nH]c3ccc(Br)cc23)c2cc(Br)ccc21 [6r] | – | – | –
207.7 | COc1ccc2c(c1)c(-c1nnc(N)nc1-c1c[nH]c3ccc(Br)cc13)cn2C [6s] | – | – | IC50 (BxPC-3 cells [3]): 29.2 ± 1.4 µM; IC50 (recombinant human PDK1): 0.09 ± 0.04 µM; effect on enzymatic activity of PDK1 (recombinant human PDK1; 1.5 µM compound, 30 min preincubation): totally suppressed; ROS basal level production / hydrogen peroxide formation (PSN-1 cells [5]): increase in the ROS basal level production; effect on PDK4 activity (ATP consumption) (recombinant human PDK4): completely blocked; percentage of cells with hypopolarized mitochondrial membrane potential (in words) (PSN-1 cells [6]): significantly increased; IC50 (PSN-1 cells [4]): 22.3 ± 2.3 µM; decrease of HSP90 catalytic activity (recombinant human HSP90; 1.5 µM compound (equivalent doses)): 60–80%
314.3 | Cn1cc(-c2nnc(N)nc2-c2c[nH]c3ccc(Br)cc23)c2cc(F)ccc21 [6t] | – | – | –
259.5 | Cn1cc(-c2nc(N)nnc2-c2c[nH]c3ccc(F)cc23)c2cc(F)ccc21 [6u] | – | – | –
295.8 | Cn1cc(-c2nnc(N)nc2-c2c[nH]c3ccc(F)cc23)c2ccccc21 [6v] | 0.1 ± 0.02 | 0.2 ± 0.03 | –
270.2 | Cn1cc(-c2nnc(N)nc2-c2c[nH]c3ccc(F)cc23)c2cc(Br)ccc21 [6x] | 0.3 ± 0.1 | 0.3 ± 0.04 | –
263.3 | COc1ccc2[nH]cc(-c3nc(N)nnc3-c3cn(C)c4ccc(OC)cc34)c2c1 [6y] | 0.3 ± 0.1 | 0.6 ± 0.04 | –
243.3 | COc1ccc2[nH]cc(-c3nc(N)nnc3-c3cn(C)c4ccccc34)c2c1 [6z] | – | – | –
